Test results as given in US4918064A, “Phenyl glycines for use in reducing neurotoxic injury” (G. D. Searle & Co., priority 1987, dated 1990).

Assays:
NMDA receptor = experiment: NMDA-specific L-[3H]glutamate receptor binding assay, synaptic plasma membranes; conditions: L-[3H]glutamate 12.5 nM, Triton X-100 treated SPM, 0-4° C., 10 min
Description: (§1) Synaptic plasma membranes (SPM) were prepared as previously described [Monahan, J. B. and Michel, J., "Identification and Characterization of an N-methyl-D-aspartate-specific L[^3 H]glutamate Recognition Site in Synaptic Plasma Membranes, J. Neurochem., 48, 1699-1708 (1987)]. The SPM were stored at a concentration of 10-15 mg/ml in 0.32M sucrose, 0.5 mM EDTA, 1 mM MgSO4, 5 mM Tris/SO4, pH 7.4, under liquid nitrogen. The identity and purity of the subcellular fractions were confirmed by both electron microscopy and marker enzymes. Protein concentrations were determined by using a modification of the method of Lowry [Ohnishi, S. T. and Barr, J. K., "A Simplified Method of Quantitating Proteins Using the Biuret and Phenol Reagents", Anal. Biochem., 86, 193-197 (1978)].
Prior to use in the NMDA-specific L-[^3 H]glutamate binding assay the SPM were thawed, diluted twenty fold with 50 mM Tris/acetate, pH 7.4 containing 0.04% (v/v) Triton X-100, incubated for 30 minutes at 37° C. and centrifuged as described above. The Triton X-100 treated membranes were washed with 50 mM Tris/acetate, pH 7.4 and centrifuged at 100,000 g for 15 minutes a total of four times.
(§2) The basic procedure for the receptor subclass binding assays was similar. This general method involved adding the radioligand (12.5 nM L-[^3 H]glutamate; 0.5 nM [^3 H]kainate or 10 nM [^3 H]AMPA) to the appropriate concentration of the test compound and initiating the assay by the addition of ice cold synaptic plasma membranes (0.2-0.45 mg). The binding assays were performed in 1.5 mL centrifuge tubes with the total volume adjusted to 1.0 mL. .Additions of test compounds were made in 50 mM Tris/acetate, pH 7.4 and incubations were carried out at 0°-4° C. The incubation time for the NMDA and the AMPA binding assays was 10 minutes, for the kainate binding assay 60 minutes and for the sodium-dependent glutamate binding assay 15 minutes. The AMPA binding assay contained 100 mM KSCN and the sodium-dependent glutamate binding assay contained 150 mM sodium acetate in addition to the previously described reagents.
(§3) To terminate the incubation, the samples were centrifuged for 15 minutes at 12,000 g and 4° C. in a Beckman Microfuge 12. The supernatant was aspirated and the pelleted membranes dissolved in Beckman BTS-450 tissue solubilizer for a minimum of 6 hours at room temperature. Beckman MP scintillation cocktail containing 7 mL/1 acetic acid was then added and the samples counted on a Beckman LS 5800 or 3801 liquid scintillation counter with automatic corrections for quenching and counting efficiency.
(§4) Nonspecific binding was defined as the residual binding in the presence of either excess L-glutamate (0.1-0.4 mM), kainate (0.01 mM), or NMDA (0.5 mM), and was 15-25% of the total binding in the NMDA binding assay, 19-27% in the AMPA binding assay, 20-30% in the kainate binding assay and 10-15% in the sodium-dependent binding assay. Radioligand binding to the synaptic plasma membranes was analyzed using Scatchard and Hill transformations and the Ki values of the compounds determined using logit-log transformations. Calculations and regression analysis were performed using templates developed for Lotus 1, 2, 3 as previously described [Pullan, L. M. "Automated Radioligand Receptor Binding Analysis with Templates for Lotus", Computer Appln. Biosci., 3 131 (1987)]. Binding results are reported in Table II for example compounds of the invention. […]

KA (kainate) receptor = experiment: [3H]kainate receptor binding assay, synaptic plasma membranes; conditions: [3H]kainate 0.5 nM, 0-4° C., 60 min
Description: as §1
(§5) The SPM were treated identically for the [^3 H]AMPA (QUIS), [^3 H]kainate and sodium-dependent L-[^3 H]-glumatate binding assays. The SPM were thawed at room temperature, diluted twenty-fold with 50 mM Tris/acetate, pH 7.4, incubated at 37° C. for 30 minutes, and centrifuged at 100,000 g for 15 minutes. The dilution, incubation, and centrifugation was repeated a total of three times.
as §2, §3, §4

[1] = target: Quis (quisqualate) receptor; experiment: [3H]AMPA (QUIS) receptor binding assay, synaptic plasma membranes; conditions: [3H]AMPA 10 nM, 100 mM KSCN, 0-4° C., 10 min
Description: as §1, §5, §2, §3, §4

CD-1 mouse = experiment: In Vivo 3-MPA-Induced Convulsions (tonic hindlimb extension)
Description: In the CD-1 mouse, i.p. injection of 3-MPA produces clonic seizures, tonic hindlimb extension and death. Seizures begin within 2-3 minutes after injection. The dose-response for induction of tonus by 3-MPA is unusual. The incidence of tonus increases rapidly from 35 to 50 mg/kg and remains constant at a less than maximal level over a broad dose range. 3-MPA doses from 50 to 150 mg/kg produce tonus in approximately 75% of the treated mice. The incidence of death over this dose range is variable and less than maximal.
In order to test for antagonism of 3-MPA-induced tonus, the lowest dose of 3-MPA that produced tonus consistently in 75% of the animals (50 mg/kg i.p.) was chosen. Test compounds were administered subcutaneously 30-40 minutes prior to i.p. administration of 3-MPA. Immediately after 3-MPA administration, each mouse was placed in a small cage made of steel rods. The mice were then observed for the presence or absence of tonic hindlimb extension. Reduction (from 75%) in the incidence of tonic hindlimb extension was considered protection from 3-MPA-induced convulsions. The dose of the test compound varied using groups of ten mice per dose until dose response curves are constructed, and ED50 's are calculated.

chick embryo retina = conditions: agonist alone, pilot experiments, 30 min; cited from earlier work

Compound	Ki (NMDA receptor) [µM]	Receptor binding, KA (Ki) (KA (kainate) receptor) [µM]	Ki [1] [µM]	mice with tonus produced by 3-MPA (CD-1 mouse; 3-MPA 50 to 150 mg/kg i.p.)	time after injection at which seizures begin (CD-1 mouse; 3-MPA i.p.) [min]	lowest dose of 3-MPA that produced tonus consistently in 75% of the animals (CD-1 mouse; i.p.) [mg/kg]	lowest concentration required to consistently obtain fully developed retinal lesions (chick embryo retina) [µM]
NC(CCCCCP(=O)(O)O)C(=O)O (racemic) [D,L-AP7, D,L-2-amino-7-phosphonoheptanoic acid, reference compound]	5.4	> 300	> 300				
N[C@H](CCCCCP(=O)(O)O)C(=O)O [D-AP7, reference compound]	4	> 300	> 300				
O=C(O)CCS [Example 3-MPA]				approximately 75%	2 to 3	50	
C=C(C)[C@H]1CN[C@H](C(=O)O)[C@H]1CC(=O)O [KA, Kainate]							25
CCOP(=O)(O)Cc1ccc(C(N)C(=O)O)cc1 (stereo not shown) [VII, 4-(Ethylphosphonomethyl)phenylglycine]	70	> 300	> 300				
Cc1cc(C(N)C(=O)O)c(C)cc1CP(=O)(O)O.Cl (stereo not shown) [X, 2,5-dimethyl-4-(phosphonomethyl)phenylglycine hydrochloride]	21.3	> 300	> 300				
